Results as given in patent US8697694B2, “Substituted pyridine and pyrimidine derivatives and their use in treating viral infections” (priority 2008, dated 2014).

Test system: HCV replicon cells
Test: Cell-based HCV replicon assay (replicon RNA level by real time PCR, Taqman)
Settings: Hepatitis C virus, 72 h, HCV replicon cells, harvested day 3, replicon RNA by real time PCR; given as number; read-out: EC90 (μM) range
Experimental: Assays Cell-Based HCV Replicon Assay
To measure cell-based anti-HCV activity of the compounds of the present invention, replicon cells were seeded at 5000 cells/well in 96-well collagen I-coated Nunc plates in the presence of the compound of the invention. Various concentrations of a compound of the invention, typically in 10 serial 2-fold dilutions, were added to the assay mixture, the starting concentration of the compound ranging from 25 μM to 1 μM. The final concentration of DMSO was 0.5%, fetal bovine serum was 10%, in the assay media. Cells were harvested on day 3 by the addition of 1× cell lysis buffer (Ambion cat #8721). The replicon RNA level was measured using real time PCR (Taqman assay). The amplicon was located in 5B. The PCR primers were: 5B.2F, ATGGACAGGCGCCCTGA (SEQ. ID NO. 1); 5B.2R, […] (SEQ. ID NO. 2); the probe sequence was FAM-labeled CACGCCATGCGCTGCGG (SEQ. ID NO. 3). GAPDH RNA was used as endogenous control and was amplified in the same reaction as NS5B (multiplex PCR) using primers and VIC-labeled probe recommended by the manufacturer (PE Applied Biosystem). The real-time RT-PCR reactions were run on ABI PRISM 7900HT Sequence Detection System using the following program: 48′C for 30 min, 95° C. for 10 min, 40 cycles of 95° C. for 15 sec, 60° C. for 1 min. The ΔCT values (CT5B-CTGAPDH) were plotted against the concentration of test compound and fitted to the sigmoid dose-response model using GraphPad PRISM software. EC50 was defined as the concentration of inhibitor necessary to achieve ΔCT=1 over the projected baseline; EC90 the concentration necessary to achieve ΔCT=3.2 over the baseline. Alternatively, to quantitate the absolute amount of replicon RNA, a standard curve was established by including serially diluted T7 transcripts of replicon RNA in the Taqman assay. All Taqman reagents were from PE Applied Biosystems. Such an assay procedure was described in detail in e.g. Malcolm et al., Antimicrobial Agents and Chemotherapy 50: 1013-1020 (2006).
HCV Replicon assay data for compounds of the invention that were tested was obtained using the above method. Calculated EC90 values are reported for each compound in Table I as a falling within the following ranges: […]

Compound	EC90
Cc1nc(NCC(F)(F)F)nc(N[C@@H]2C[C@H](COC(=O)N3CCOCC3)[C@@H](O)[C@H]2O)c1-c1nc2ccccc2s1 [Example 63]	0.45 µM

Same assay, conditions: Hepatitis C virus, 72 h, HCV replicon cells, harvested day 3, replicon RNA by real time PCR; reported as range class; read-out: EC90 (μM) range

Compound	EC90
COc1cc2cc(-c3c(Cl)nc(N)nc3N[C@@H]3C[C@H](CO)[C@@H](O)[C@H]3O)oc2cn1 [Example 11]	< 0.5 µM
Nc1nc(Cl)c(-c2ccc(Oc3ccccc3)cc2)c(N[C@@H]2C[C@H](CO)[C@@H](O)[C@H]2O)n1 [Example 101]	> 5 µM

Same assay, conditions: Hepatitis C virus, 72 h, HCV replicon cells, harvested on day 3, replicon RNA by real time PCR; calculated EC90 reported as range class; read-out: EC90 (μM) range

Compound	EC90
COC[C@H](C)Nc1nc(Cl)c(-c2nc3ccccc3s2)c(N[C@@H]2C[C@H](CO)[C@@H](O)[C@H]2O)n1 [Example 438]	< 0.5 µM
Cc1ccc(CNc2nc(C)c(-c3nc4ccccc4s3)c(N[C@@H]3C[C@H](CO)[C@H]4OC(C)(C)O[C@H]43)n2)s1 [Example 496]	< 0.5 µM
CCCCCNc1nc(C)c(-c2nc3ccccc3s2)c(N[C@@H]2CC[C@@H](O)[C@H]2O)n1 [Example 327]	< 0.5 µM
Cc1nc(NCc2cc3ccccc3s2)nc(N[C@@H]2C[C@H](CO)[C@H]3OC(C)(C)O[C@H]32)c1-c1nc2ccccc2s1 [Example 475]	0.5 to 5 µM
Cc1nc(NCc2ccccn2)nc(N[C@@H]2C[C@H](CO)[C@@H](O)[C@H]2O)c1-c1nc2ccccc2s1 [Example 465]	< 0.5 µM
CCC(C)(C)Nc1nc(Cl)c(-c2nc3ccccc3s2)c(N[C@@H]2C[C@H](CO)[C@@H](O)[C@H]2O)n1 [Example 506]	< 0.5 µM

Same assay, conditions: Hepatitis C virus, 72 h, HCV replicon cells, replicon RNA level by real time PCR (Taqman), harvested on day 3; calculated EC90 reported as range class; read-out: EC90 (μM) range

Compound	EC90
Cc1nc(NCCC(=O)O)nc(N[C@@H]2C[C@H](CO)[C@@H](O)[C@H]2O)c1-c1nc2ccccc2s1 [Example 1012]	> 5 µM
COc1cccc2sc(-c3c(C)nc(NCC(F)(F)F)nc3N[C@@H]3C[C@H](C(C)O)[C@@H](O)[C@H]3O)nc12 (some centres unmarked) [Example 1072]	0.5 to 5 µM
Cc1nc(NCc2ccco2)nc(N[C@@H]2C[C@H](CO)[C@@H](O)[C@H]2O)c1-c1nc2cnccc2s1 [Example 1215]	< 0.5 µM
CCOc1nc(C)cc2cc(-c3c(C)nc(NC(C)c4ccc(C)cc4)nc3N[C@@H]3C[C@H](CO)[C@@H](O)[C@H]3O)oc12 (some centres unmarked) [Example 1249]	0.5 to 5 µM
COc1cnccc1Nc1nc(C)c(-c2nc3ccccc3s2)c(N[C@@H]2C[C@H](CO)[C@@H](O)[C@H]2O)n1 [Example 1131]	> 5 µM
COc1cc2cc(-c3c(C)nc(NCC4CC4)nc3N[C@@H]3C[C@H](CO)[C@@H](O)[C@H]3O)oc2c(OC)n1 [Example 1127]	< 0.5 µM
COCCNc1nc(C#N)c(-c2nc3ccccc3s2)c(N[C@@H]2C[C@H](CO)[C@@H](O)[C@H]2O)n1 [Example 1301]	> 5 µM

Same assay, conditions: Hepatitis C virus, 72 h, HCV replicon cells, replicon RNA level by real time PCR, harvested day 3; read-out: EC90 (μM) range

Compound	EC90
Cc1nc(NCC(F)(F)F)nc(N[C@@H]2C[C@@H](CN(CC3CC3)S(C)(=O)=O)[C@@H](O)[C@H]2O)c1-c1nc2ccccc2s1 [Example 1394]	0.5 to 5 µM
Cc1nc(NCC2CC2)nc(N[C@@H]2C[C@H](C(C)O)[C@@H](O)[C@H]2O)c1-c1nc2ccccc2s1 (single isomer, unassigned) [Example 1644]	< 0.5 µM
Cc1nc(NCC2CC2)nc(NC[C@@H]2CC2(CO)CO)c1-c1nc2ccccc2s1 [Example 1617]	> 5 µM
Cc1ccsc1CCNc1nc(C)c(-c2nc3cnccc3s2)c(N[C@@H]2C[C@H](CO)[C@@H](O)[C@H]2O)n1 [Example 1707]	< 0.5 µM
Cc1nc(NCC(F)(F)F)nc(N[C@@H]2C[C@H](O)[C@@H](O)[C@H]2O)c1-c1nc2ccccc2s1 [Example 1366]	0.5 to 5 µM
CCOCCNc1nc(C)c(-c2nc3cnccc3s2)c(N[C@@H]2CC[C@@H](O)[C@@]2(C)O)n1 [Example 1819]	< 0.5 µM
Cc1nc(NCC2CC2)nc(N[C@@H]2CC[C@@H](O)[C@@]2(C)O)c1-c1nc2ccccc2s1 [Example 1701]	0.5 to 5 µM
Cc1nc(NCC2CC2)nc(N[C@@H]2C[C@H](CO)[C@@H](O)[C@H]2O)c1-c1nc2c(CC(C)C)nccc2s1 [Example 1370]	< 0.5 µM
Cc1nc(NC2CCC2)nc(N[C@@H]2C[C@H](CO)[C@@H](O)[C@H]2O)c1-c1nc2c(C)nccc2s1 [Example 1544]	< 0.5 µM
Cc1nc(NC2CC2)nc(N[C@@H]2C[C@H](C(C)O)[C@@H](O)[C@H]2O)c1-c1nc2c(C)nccc2s1 (some centres unmarked) [Example 1398]	< 0.5 µM
